How the values were obtained:
MKNK1 [1] = molecular target: T1, MKNK1 (Homo sapiens, UniProt Q9BUB5, T385D); assay: MKNK1 kinase high ATP assay (TR-FRET-based); assay type: biochemical; details: Table 2c; 2 mM ATP, 15 min preincubation
T1 construct: GST (N); purchased Carna Biosciences 02-145; host or cells: insect cells (baculovirus expression system)
Outline: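 TR-FRET read-out (anti-phospho-S6 Ser236 antibody, Eu/XL665) of biotin-peptide phosphorylation (0.06 μM) at high ATP (2 mM final). Enzyme was GST-MKNK1 full length, T344D, pre-bound to compound for 15 min before a 30 min reaction at 22 °C, pH 7.5. Inhibition scaled between no-inhibitor (0%) and no-enzyme (100%) wells.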

MKNK1 [2] = molecular target: T1, MKNK1; assay: MKNK1 kinase assay (MKNK1 TR-FRET assay); assay type: biochemical; details: Table 1c; 10 μM ATP, 15 min preincubation

T1 sequence (Q9BUB5 1-424 isoform Q9BUB5-2 T344D): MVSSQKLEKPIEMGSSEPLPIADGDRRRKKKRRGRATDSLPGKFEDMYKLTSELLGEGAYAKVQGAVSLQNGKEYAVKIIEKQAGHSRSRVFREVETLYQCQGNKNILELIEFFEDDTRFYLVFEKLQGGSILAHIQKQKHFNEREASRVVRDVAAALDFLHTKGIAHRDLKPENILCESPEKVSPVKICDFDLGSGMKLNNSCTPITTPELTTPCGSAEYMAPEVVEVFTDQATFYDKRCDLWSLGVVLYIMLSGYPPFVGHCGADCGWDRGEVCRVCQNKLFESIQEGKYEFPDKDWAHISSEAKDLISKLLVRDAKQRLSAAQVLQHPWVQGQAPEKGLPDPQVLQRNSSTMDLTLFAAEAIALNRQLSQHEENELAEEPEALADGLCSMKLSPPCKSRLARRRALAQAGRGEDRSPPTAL

SMILES	IC50 (MKNK1 [1]) [nM]	IC50 (MKNK1 [2]) [nM]
CCN(CCOC)c1nccc2oc(-c3cnc4ccc(O[C@H](C)CN)nn34)cc12 [III-32, 2-(6-{[(2R)-1-Aminopropan-2-yl]oxy}imidazo[1,2-b]pyridazin-3-yl)-N-ethyl-N-(2-methoxyethyl)furo[3,2-c]pyridin-4-amine]	1.5	0.6
COC[C@H]1CCCN1c1nccc2oc(-c3cnc4ccc(OC[C@@H]5COCCN5)nn34)cc12 [III-37, 3-{4-[(2R)-2-(Methoxymethyl)pyrrolidin-1-yl]furo[3,2-c]pyridin-2-yl}-6-[(3S)-morpholin-3-ylmethoxy]imidazo[1,2-b]pyridazine]	11.1	1.1
CCN(CCOC)c1nccc2oc(-c3cnc4ccc(OC[C@H]5COCCN5)nn34)cc12 [III-38, N-Ethyl-N-(2-methoxyethyl)-2-{6-[(3R)-morpholin-3-ylmethoxy]imidazo[1,2-b]pyridazin-3-yl}furo[3,2-c]pyridin-4-amine]	4.8	0.5
CCN(CCOC(C)(C)C)c1nccc2oc(-c3cnc4ccc(OC[C@@H]5COCCN5)nn34)cc12 [III-39, N-(2-tert-Butoxyethyl)-N-ethyl-2-{6-[(3S)-morpholin-3-ylmethoxy]imidazo-[1,2-b]pyridazin-3-yl}furo[3,2-c]pyridin-4-amine]	0.5	0.9
CCN(CCO)c1nccc2oc(-c3cnc4ccc(OC[C@@H]5COCCN5)nn34)cc12 [III-40, 2-[Ethyl(2-{6-[(3S)-morpholin-3-ylmethoxy]imidazo[1,2-b]pyridazin-3-yl}furo[3,2-c]pyridin-4-yl)amino]ethanol]	2.6	1.5
CCN(CCOC)c1nccc2oc(-c3cnc4ccc(OCC5CCCCN5)nn34)cc12 (stereo not drawn) [III-41, N-Ethyl-N-(2-methoxyethyl)-2-[6-(piperidin-2-ylmethoxy)imidazo[1,2-b]pyridazin-3-yl]furo[3,2-c]pyridin-4-amine]	17.6	12
CN1CCN(c2nccc3oc(-c4cnc5ccc(OCCCS(C)(=O)=O)nn45)cc23)CC1 [III-43, 3-[4-(4-Methylpiperazin-1-yl)furo[3,2-c]pyridin-2-yl]-6-[3-(methylsulfonyl)-propoxy]imidazo[1,2-b]pyridazine]	5.3	5.7
CS(=O)(=O)CCCOc1ccc2ncc(-c3cc4c(N5CCCCC5)nccc4o3)n2n1 [III-45, 6-[3-(methylsulfonyl)propoxy]-3-[4-(piperidin-1-yl)furo[3,2-c]pyridin-2-yl]imidazo[1,2-b]pyridazine]	8.1	4.4
CN(C)[C@@H]1CCN(c2nccc3oc(-c4cnc5ccc(OCCCS(C)(=O)=O)nn45)cc23)C1 [III-46, (3R)—N,N-Dimethyl-1-(2-{6-[3-(methylsulfonyl)propoxy]imidazo[1,2-b]pyridazin-3-yl}furo[3,2-c]pyridin-4-yl)pyrrolidin-3-amine]	3.6	3.9
CC(C)(C)OC(=O)N1CCN(c2nccc3oc(-c4cnc5ccc(OCCCS(C)(=O)=O)nn45)cc23)CC1 [III-49, tert-Butyl 4-(2-{6-[3-(methylsulfonyl)propoxy]imidazo[1,2-b]pyridazin-3-yl}furo[3,2-c]pyridin-4-yl)piperazine-1-carboxylate]	38.5	21.3
CC(=O)N1CCN(c2nccc3oc(-c4cnc5ccc(OCCCS(C)(=O)=O)nn45)cc23)CC1 [III-51, 1-[4-(2-{6-[3-(Methylsulfonyl)propoxy]imidazo[1,2-b]pyridazin-3-yl}furo[3,2-c]pyridin-4-yl)piperazin-1-yl]ethanone]	14.2	7.3
COCCN(C)c1nccc2oc(-c3cnc4ccc(OCCCS(C)(=O)=O)nn34)cc12 [III-52, N-(2-Methoxyethyl)-N-methyl-2-{6-[3-(methylsulfonyl)propoxy]imidazo[1,2-b]pyridazin-3-yl}furo[3,2-c]pyridin-4-amine]	3.7	1.8
C[C@@H]1CN(c2nccc3oc(-c4cnc5ccc(OCCCS(C)(=O)=O)nn45)cc23)C[C@H](C)O1 [III-53, 3-{4-[(2R,6S)-2,6-Dimethylmorpholin-4-yl]furo[3,2-c]pyridin-2-yl}-6-[3-(methyl-sulfonyl)propoxy]imidazo[1,2-b]pyridazine]	26.7	8.7
CS(=O)(=O)CCCOc1ccc2ncc(-c3cc4c(N5CCN(c6ccccc6)CC5)nccc4o3)n2n1 [III-56, 6-[3-(Methylsulfonyl)propoxy]-3-[4-(4-phenylpiperazin-1-yl)furo[3,2-c]pyridin-2-yl]imidazo[1,2-b]pyridazine]	16.9	20.8
C[C@@H]1COCCN1c1nccc2oc(-c3cnc4ccc(OCCCS(C)(=O)=O)nn34)cc12 [III-58, 3-{4-[(3R)-3-Methylmorpholin-4-yl]furo[3,2-c]pyridin-2-yl}-6-[3-(methyl-sulfonyl)propoxy]imidazo[1,2-b]pyridazine]	4.4	1
CN1CCN(c2nccc3oc(-c4cnc5ccc(OC[C@H]6CCC(=O)N6)nn45)cc23)CC1 [III-61, (5R)-5-[({3-[4-(4-Methylpiperazin-1-yl)furo[3,2-c]pyridin-2-yl]imidazo[1,2-b]pyridazin-6-yl}oxy)methyl]pyrrolidin-2-one]	1.2	1

Further molecules by falling IC50 (MKNK1 [1]), results first:

IC50 (MKNK1 [1]) [nM]	IC50 (MKNK1 [2]) [nM]	SMILES
37.3	11.6	c1cc2oc(-c3cnc4ccc(OC[C@@H]5COCCN5)nn34)cc2c(N2CCOCC2)n1 [III-36, 3-[4-(Morpholin-4-yl)furo[3,2-c]pyridin-2-yl]-6-[(3S)-morpholin-3-ylmethoxy]imidazo[1,2-b]pyridazine]
32.1	11.9	CC(C)(C)N1CCN(c2nccc3oc(-c4cnc5ccc(OCCCS(C)(=O)=O)nn45)cc23)CC1 [III-48, 3-[4-(4-tert-Butylpiperazin-1-yl)furo[3,2-c]pyridin-2-yl]-6-[3-(methylsulfonyl)-propoxy]imidazo[1,2-b]pyridazine]
21.2	13.6	CN(CCCN1CCCC1)c1nccc2oc(-c3cnc4ccc(OCCCS(C)(=O)=O)nn34)cc12 [III-47, N-methyl-2-{6-[3-(methylsulfonyl)propoxy]imidazo[1,2-b]pyridazin-3-yl}-N-[3-(pyrrolidin-1-yl)propyl]furo[3,2-c]pyridin-4-amine]
14.9	5.5	CS(=O)(=O)CCCOc1ccc2ncc(-c3cc4c(N5CCCC5)nccc4o3)n2n1 [III-44, 6-[3-(Methylsulfonyl)propoxy]-3-[4-(pyrrolidin-1-yl)furo[3,2-c]pyridin-2-yl]imidazo[1,2-b]pyridazine]
7.8	3.7	CN(C)C1CCN(c2nccc3oc(-c4cnc5ccc(OCCCS(C)(=O)=O)nn45)cc23)CC1 [III-55, N,N-Dimethyl-1-(2-{6-[3-(methylsulfonyl)propoxy]imidazo[1,2-b]pyridazin-3-yl}furo[3,2-c]pyridin-4-yl)piperidin-4-amine]
7.4	3.5	COCCN(C)c1nccc2oc(-c3cnc4ccc(O[C@H](C)CN)nn34)cc12 [III-34, 2-(6-{[(2R)-1-Aminopropan-2-yl]oxy}imidazo[1,2-b]pyridazin-3-yl)-N-(2-methoxyethyl)-N-methylfuro[3,2-c]pyridin-4-amine]
6.2	2.8	CN(CCCO)c1nccc2oc(-c3cnc4ccc(OCCCS(C)(=O)=O)nn34)cc12 [III-54, 3-[Methyl(2-{6-[3-(methylsulfonyl)propoxy]imidazo[1,2-b]pyridazin-3-yl}furo[3,2-c]pyridin-4-yl)amino]propan-1-ol]
4.7	2.2	CS(=O)(=O)CCCOc1ccc2ncc(-c3cc4c(N5CCOCC5)nccc4o3)n2n1 [III-42, 6-[3-(Methylsulfonyl)propoxy]-3-[4-(morpholin-4-yl)furo[3,2-c]pyridin-2-yl]imidazo[1,2-b]pyridazine]
3.6	1.5	CS(=O)(=O)CCCOc1ccc2ncc(-c3cc4c(N5CCC(CO)CC5)nccc4o3)n2n1 [III-57, [1-(2-{6-[3-(Methylsulfonyl)propoxy]imidazo[1,2-b]pyridazin-3-yl}furo[3,2-c]pyridin-4-yl)piperidin-4-yl]methanol]
3	0.5	COC[C@H]1CCCN1c1nccc2oc(-c3cnc4ccc(O[C@H](C)CN)nn34)cc12 [III-31, (2R)-2-[(3-{4-[(2R)-2-(Methoxymethyl)pyrrolidin-1-yl]furo[3,2-c]pyridin-2-yl}imidazo[1,2-b]pyridazin-6-yl)oxy]propan-1-amine]
1.3	1.1	CCCN(CCOC)c1nccc2oc(-c3cnc4ccc(O[C@H](C)CN)nn34)cc12 [III-33, 2-(6-{[(2R)-1-Aminopropan-2-yl]oxy}imidazo[1,2-b]pyridazin-3-yl)-N-(2-methoxyethyl)-N-propylfuro[3,2-c]pyridin-4-amine]
1	2.4	O=C1CC[C@H](COc2ccc3ncc(-c4cc5c(N6CCCCC6)nccc5o4)n3n2)N1 [III-62, (5R)-5-[({3-[4-(Piperidin-1-yl)furo[3,2-c]pyridin-2-yl]imidazo[1,2-b]pyridazin-6-yl}oxy)methyl]pyrrolidin-2-one]
0.9	1	CCN(CCOC)c1nccc2oc(-c3cnc4ccc(OC[C@@H]5COCCN5)nn34)cc12 [III-35, N-Ethyl-N-(2-methoxyethyl)-2-{6-[(3S)-morpholin-3-ylmethoxy]imidazo[1,2-b]pyridazin-3-yl}furo[3,2-c]pyridin-4-amine]
0.5	1.4	CCN(CCOC)c1nccc2oc(-c3cnc4ccc(OCCCS(C)(=O)=O)nn34)cc12 [III-50, N-Ethyl-N-(2-methoxyethyl)-2-{6-[3-(methylsulfonyl)propoxy]imidazo[1,2-b]pyridazin-3-yl}furo[3,2-c]pyridin-4-amine]
